Data as given in ChEMBL document CHEMBL1121381, “Beta-adrenergic blocking agents. 19. 1-Phenyl-2-[[(substituted-amido)alkyl]amino]ethanols” (1980).

Tests used:
Felis catus = organism: Felis catus; test: Percentage inhibition of depressor response in cat was determined; type: functional; parameters: concentration or dose not given beside the values
[1] = molecular target: Adrenergic receptor beta (Rattus norvegicus) (UniProt P18090+P10608+P26255); test: In vivo beta-adrenoceptor blocking potency measured by blockade of the isoproterenol tachycardia response in rat; type: functional, organism-based

## CC(CNC(=O)C1CCCCC1)NCC(O)c1ccccc1 (stereo unspecified)
Felis catus
  Inhibition: 19%
[1]
  ED50: 0.11 mg/kg

## CCC(=O)NCCNCC(O)c1ccccc1 (stereo unspecified)
Felis catus
  Inhibition: 46%
[1]
  ED50: 0.07 mg/kg

## CCC(=O)NCCNCC(O)c1ccc(C)cc1 (stereo unspecified)
[1]
  ED50: 0.5 mg/kg

## CC(=O)Nc1ccc(OCC(O)CNC(C)C)cc1 (stereo unspecified) [PRACTOLOL]
Felis catus
  Inhibition: 8%

## C=CCOc1ccccc1OCC(=O)NCCNCC(O)c1ccccc1 (stereo unspecified)
[1]
  ED50: 5.8 mg/kg

## N#Cc1ccc(OCC(=O)NCCNCC(O)c2ccccc2)cc1 (stereo unspecified)
[1]
  ED50: 0.7 mg/kg

## CCC(C)NCC(O)c1ccc2c(c1)CCCC2.Cl (stereo unspecified)
Felis catus
  Inhibition: 47%

## O=C(Cc1ccc(Cl)cc1)NCCNCC(O)c1ccccc1 (stereo unspecified)
Felis catus
  Inhibition: 3%
[1]
  ED50: 0.7 mg/kg

## O=C(NCCNCC(O)c1ccccc1)C1CCCC1 (stereo unspecified)
Felis catus
  Inhibition: 8%
[1]
  ED50: 0.42 mg/kg

## CC(CNC(=O)Cc1ccccc1)NCC(O)c1ccccc1 (stereo unspecified)
Felis catus
  Inhibition: 36%
[1]
  ED50: 0.1 mg/kg

## CC(C)C(=O)NCC(C)(C)NCC(O)c1ccccc1 (stereo unspecified)
Felis catus
  Inhibition: 9%
[1]
  ED50: 0.27 mg/kg

## CC(C)C(=O)NCCNCC(O)c1ccc([N+](=O)[O-])cc1 (stereo unspecified)
Felis catus
  Inhibition: 0%
[1]
  ED50: 10 mg/kg

## O=C(COc1ccccc1)NCCNCC(O)c1ccccc1 (stereo unspecified)
[1]
  ED50: 1 mg/kg

## CCCC(=O)NCCNCC(O)c1ccccc1 (stereo unspecified)
Felis catus
  Inhibition: 0%
[1]
  ED50: 0.45 mg/kg

## CC(C)(CNC(=O)Cc1ccccc1)NCC(O)c1ccccc1.O=C(O)/C=C/C(=O)O (stereo unspecified)
Felis catus
  Inhibition: 28%
[1]
  ED50: 0.1 mg/kg

## C=CCNC(=O)NCCNCC(O)c1ccccc1 (stereo unspecified)
Felis catus
  Inhibition: 0%
[1]
  ED50: 0.26 mg/kg

## O=C(NCCNCC(O)c1ccccc1)Nc1ccccc1 (stereo unspecified)
Felis catus
  Inhibition: 0%
[1]
  ED50: 2.9 mg/kg

## O=C(NCCNCC(O)c1ccccc1)C(F)(F)F (stereo unspecified)
[1]
  ED50: 0.1 mg/kg

## CCCCNC(=O)NCCNCC(O)c1ccccc1 (stereo unspecified)
Felis catus
  Inhibition: 54%
[1]
  ED50: 0.5 mg/kg

## O=C(NCCNCC(O)c1ccccc1)c1ccc(O)cc1 (stereo unspecified)
Felis catus
  Inhibition: 10%
[1]
  ED50: 9 mg/kg

## CC(C)C(=O)NCCNCC(O)c1ccc(NS(C)(=O)=O)cc1 (stereo unspecified)
[1]
  ED50: 5.2 mg/kg

## O=C(Cc1ccccc1)NCCNCC(O)c1ccccc1 (stereo unspecified)
Felis catus
  Inhibition: 6%
[1]
  ED50: 0.38 mg/kg

## O=C(COc1ccc(Cl)cc1)NCCNCC(O)c1ccccc1 (stereo unspecified)
Felis catus
  Inhibition: 36%
[1]
  ED50: 2.5 mg/kg

## O=S(=O)(Cc1ccccc1)NCCNCC(O)c1ccccc1 (stereo unspecified)
Felis catus
  Inhibition: 0%
[1]
  ED50: 2 mg/kg

## CC(C)C(=O)NCCNCC(O)c1ccc(Br)cc1 (stereo unspecified)
[1]
  ED50: 1.6 mg/kg

## COc1ccc(CC(=O)NCCNCC(O)c2ccccc2)cc1 (stereo unspecified)
Felis catus
  Inhibition: 24%
[1]
  ED50: 0.32 mg/kg

## O=C(Cc1ccccc1)NCCNCC(O)c1ccccc1Cl.O=C(O)/C=C/C(=O)O (stereo unspecified)
Felis catus
  Inhibition: 45%
[1]
  ED50: 0.6 mg/kg

## CC(=O)c1ccc(OCC(=O)NCCNCC(O)c2ccccc2)cc1 (stereo unspecified)
[1]
  ED50: 0.6 mg/kg

## CC(CNCC(O)c1ccccc1)NC(=O)Cc1ccccc1 (stereo unspecified)
[1]
  ED50: 8 mg/kg

## CC(C)C(=O)NCCNCC(O)c1ccc(N)cc1 (stereo unspecified)
Felis catus
  Inhibition: 69%
[1]
  ED50: 0.6 mg/kg

## COCC(=O)NCCNCC(O)c1ccccc1 (stereo unspecified)
Felis catus
  Inhibition: 44%
[1]
  ED50: 0.4 mg/kg

## CC(C)C(=O)NCCNCC(O)c1ccc(Cl)cc1Cl (stereo unspecified)
[1]
  ED50: 0.75 mg/kg

## O=C(NCCNCC(O)c1ccccc1)c1ccccc1 (stereo unspecified)
[1]
  ED50: 10 mg/kg

## O=S(=O)(NCCNCC(O)c1ccccc1)c1ccccc1 (stereo unspecified)
Felis catus
  Inhibition: 27%
[1]
  ED50: 1 mg/kg

## O=C(CO)NCCNCC(O)c1ccccc1 (stereo unspecified)
[1]
  ED50: 0.3 mg/kg

## CCCCCC(=O)NCCNCC(O)c1ccccc1 (stereo unspecified)
Felis catus
  Inhibition: 8%
[1]
  ED50: 1.4 mg/kg

## O=[N+]([O-])c1ccccc1S(=O)(=O)NCCNCC(O)c1ccccc1 (stereo unspecified)
Felis catus
  Inhibition: 23%
[1]
  ED50: 2.5 mg/kg

## CCOC(=O)NCCNCC(O)c1ccccc1 (stereo unspecified)
[1]
  ED50: 2.8 mg/kg

## NC(=O)c1ccccc1OCC(=O)NCCNCC(O)c1ccccc1 (stereo unspecified)
[1]
  ED50: 5.2 mg/kg

## COc1ccc(CC(=O)NCCNCC(O)c2ccccc2)cc1OC (stereo unspecified)
[1]
  ED50: 7 mg/kg

## COc1ccc(C(O)CNCCNC(=O)C(C)C)cc1 (stereo unspecified)
Felis catus
  Inhibition: 0%
[1]
  ED50: 0.3 mg/kg

## CC(=O)Nc1ccc(CC(=O)NCCNCC(O)c2ccccc2)cc1 (stereo unspecified)
[1]
  ED50: 1.2 mg/kg

## Nc1ccc(CC(=O)NCCNCC(O)c2ccccc2)cc1 (stereo unspecified)
[1]
  ED50: 2.5 mg/kg

## CC(O)c1ccc(OCC(=O)NCCNCC(O)c2ccccc2)cc1 (stereo unspecified)
[1]
  ED50: 1.6 mg/kg

## CC(CNC(=O)Cc1ccccc1Cl)NCC(O)c1ccccc1 (stereo unspecified)
Felis catus
  Inhibition: 19%
[1]
  ED50: 0.03 mg/kg

## CC(=O)NCCNCC(O)c1ccccc1 (stereo unspecified)
Felis catus
  Inhibition: 50%
[1]
  ED50: 0.08 mg/kg

## CC(C)C(=O)NCCNCC(O)c1ccccc1 (stereo unspecified)
Felis catus
  Inhibition: 27%
[1]
  ED50: 0.7 mg/kg

## CC(C)CC(=O)NCCNCC(O)c1ccccc1 (stereo unspecified)
Felis catus
  Inhibition: 25%
[1]
  ED50: 0.72 mg/kg

## Cl.O=C(NCCNCC(O)c1ccccc1)C1CCCCC1 (stereo unspecified)
Felis catus
  Inhibition: 0%
[1]
  ED50: 0.16 mg/kg

## CC(C)NCC(O)c1ccc(NS(C)(=O)=O)cc1 (stereo unspecified) [SOTALOL]
Felis catus
  Inhibition: 85%

## CCCS(=O)(=O)NCCNCC(O)c1ccccc1 (stereo unspecified)
Felis catus
  Inhibition: 0%
[1]
  ED50: 0.5 mg/kg
